{"source": "paper PMC11859184", "about": "“Synthesis and Evaluation of ^68Ga- and ^177Lu-Labeled [diF-Pro^14]Bombesin(6−14) Analogs for Detection and Radioligand Therapy of Gastrin-Releasing Peptide Receptor-Expressing Cancer” (Pharmaceuticals, 2025)", "test": "Ex vivo biodistribution of 177Lu-labeled ligands in PC-3 tumor-bearing mice", "settings": "mouse; for tissue to tissue ratio at 1 h / tissue uptake at 1 h: 1 h pi; for tissue to tissue ratio at 4 h / tissue uptake at 4 h: 4 h pi; for tissue to tissue ratio at 24 h / tissue uptake at 24 h: 24 h pi; for tissue to tissue ratio at 120 h / tissue uptake at 120 h: 120 h pi; for tissue uptake at 1 h / tissue uptake at 4 h / tissue uptake at 24 h / tissue uptake at 72 h / tissue uptake at 120 h: intravenous", "method": "SPECT/CT imaging was conducted using an MI Labs (Houten, The Netherlands) U-SPECT-II/CT scanner with a custom-made ultra-high sensitivity big mouse collimator (2 mm pinhole size) following published procedure. The experiments were obtained in accordance with the same protocol established in the PET/CT imaging and ex vivo biodistributions section. The mice were used for SPECT/CT imaging and ex vivo biodistributions studies once the tumors reached a diameter of 5–8 mm. PC-3 tumor-bearing mice were sedated (2.5% isoflurane in O2) and injected with 31.4–36.9 MBq of the ^177Lu-labeled ligand through a lateral caudal tail vein. The mouse was imaged at 1, 4, 24, 72, and 120 h pi. At each time point, a 5 min CT scan was performed with 615 μA and 60 kV parameters for localization and attenuation, followed by two 30 min static SPECT scans in list mode with an energy window centered around 208 keV. The U-SPECT II software was used to reconstruct data, and the images were decay corrected to the time of injection with PMOD v 3.402 (PMOD Technologies GmbH, Fallanden, Switzerland).\nFor ex vivo biodistribution studies, the mice were injected with ~3–5 MBq of the ^177Lu-labeled ligand (n = 5). At 1, 4, 24, 72, and 120 h post-injection, the mice were anesthetized with 2% isoflurane, euthanized by CO2 inhalation, and the tissues/organs of interest were […] for radioactivity counting. The blocking study was performed at 1 h pi via co-injection of the ^177Lu-labeled ligand with 100 μg of [D-Phe^6,Leu-NHEt^13,des-Met^14]Bombesin(6–14).", "key": {"[1]": {"settings": "male, NOD.Cg-Rag1^tm1Mom Il2rg^tm1Wjl/SzJ (NRG), tumor/blood, iv, total radioactivity, n = 5, read-out: Tumor/blood uptake ratio"}, "[2]": {"settings": "male, NOD.Cg-Rag1^tm1Mom Il2rg^tm1Wjl/SzJ (NRG), tumor/kidney, iv, total radioactivity, n = 5, read-out: Tumor/kidney uptake ratio"}, "[3]": {"settings": "male, NOD.Cg-Rag1^tm1Mom Il2rg^tm1Wjl/SzJ (NRG), tumor/muscle, iv, total radioactivity, n = 5, read-out: Tumor/muscle uptake ratio"}, "[4]": {"settings": "male, NOD.Cg-Rag1^tm1Mom Il2rg^tm1Wjl/SzJ (NRG), tumor/pancreas, iv, total radioactivity, n = 5, read-out: Tumor/pancreas uptake ratio"}, "[5]": {"settings": "PC-3 tumor, n = 5, read-out: PC-3 tumor uptake"}, "[6]": {"settings": "adrenal glands, n = 5, read-out: Adrenal glands uptake"}, "[7]": {"settings": "blood, n = 5, read-out: Blood uptake"}, "[8]": {"settings": "bone, n = 5, read-out: Bone uptake"}, "[9]": {"settings": "brain, n = 5, read-out: Brain uptake"}, "[10]": {"settings": "fat, n = 5, read-out: Fat uptake"}, "[11]": {"settings": "heart, n = 5, read-out: Heart uptake"}}, "note": "Where two headings read alike, the source gives them in different places.", "data": [{"compound": "CC(C)C[C@H](NC(=O)[C@H](Cc1cnc[nH]1)N(C)C(=O)CNC(=O)[C@@H](NC(=O)[C@H](C)NC(=O)[C@H](Cc1c[nH]c2ccccc12)NC(=O)[C@H](CCC(N)=O)NC(=O)[C@@H](Cc1ccccc1)NC(=O)CN1CCC(NC(=O)CN2CCN(CC(=O)O)CCN(CC(=O)O)CCN(CC(=O)O)CC2)CC1)C(C)(C)C)C(=O)N1CC(F)(F)C[C@H]1C(N)=O", "note": "[[^177Lu]Lu-LW02060, metal not drawn]", "values": [{"measurement": "tissue uptake", "setting": "male, NOD.Cg-Rag1^tm1Mom Il2rg^tm1Wjl/SzJ (NRG), iv, total radioactivity, all time points, read-out: uptake in all other collected organs/tissues (other than tumor, pancreas, kidney)", "value": "< 1", "unit": "%ID/g"}, {"measurement": "tissue to tissue ratio at 1 h", "setting": "male, NOD.Cg-Rag1^tm1Mom Il2rg^tm1Wjl/SzJ (NRG), tumor/blood, iv, total radioactivity, blocked (100 µg GRPR antagonist co-injected), read-out: Tumor/blood uptake ratio", "value": "6.37 ± 1.92"}, {"measurement": "tissue to tissue ratio at 1 h", "setting": "[1]", "value": "16.1 ± 2.2"}, {"measurement": "tissue to tissue ratio at 4 h", "setting": "[1]", "value": "144 ± 33.5"}, {"measurement": "tissue to tissue ratio at 24 h", "setting": "[1]", "value": "813 ± 203"}, {"measurement": "tissue to tissue ratio at 72 h", "setting": "male, NOD.Cg-Rag1^tm1Mom Il2rg^tm1Wjl/SzJ (NRG), tumor/blood, iv, total radioactivity, 72 h pi, n = 5, read-out: Tumor/blood uptake ratio", "value": "1120 ± 440"}, {"measurement": "tissue to tissue ratio at 120 h", "setting": "[1]", "value": "1630 ± 548"}, {"measurement": "tissue to tissue ratio at 1 h", "setting": "male, NOD.Cg-Rag1^tm1Mom Il2rg^tm1Wjl/SzJ (NRG), tumor/kidney, iv, total radioactivity, blocked (100 µg GRPR antagonist co-injected), read-out: Tumor/kidney uptake ratio", "value": "0.89 ± 0.22"}, {"measurement": "tissue to tissue ratio at 1 h", "setting": "[2]", "value": "2.65 ± 0.64"}, {"measurement": "tissue to tissue ratio at 4 h", "setting": "[2]", "value": "2.96 ± 0.3"}, {"measurement": "tissue to tissue ratio at 24 h", "setting": "[2]", "value": "5.67 ± 1.43"}, {"measurement": "tissue to tissue ratio at 72 h", "setting": "male, NOD.Cg-Rag1^tm1Mom Il2rg^tm1Wjl/SzJ (NRG), tumor/kidney, iv, total radioactivity, 72 h pi, n = 5, read-out: Tumor/kidney uptake ratio", "value": "8.43 ± 2.89"}, {"measurement": "tissue to tissue ratio at 120 h", "setting": "[2]", "value": "14.1 ± 4.53"}, {"measurement": "tissue to tissue ratio at 1 h", "setting": "male, NOD.Cg-Rag1^tm1Mom Il2rg^tm1Wjl/SzJ (NRG), tumor/muscle, iv, total radioactivity, blocked (100 µg GRPR antagonist co-injected), read-out: Tumor/muscle uptake ratio", "value": "23.2 ± 5.2"}, {"measurement": "tissue to tissue ratio at 1 h", "setting": "[3]", "value": "78.3 ± 13"}, {"measurement": "tissue to tissue ratio at 4 h", "setting": "[3]", "value": "196 ± 53.1"}, {"measurement": "tissue to tissue ratio at 24 h", "setting": "[3]", "value": "520 ± 113"}, {"measurement": "tissue to tissue ratio at 72 h", "setting": "male, NOD.Cg-Rag1^tm1Mom Il2rg^tm1Wjl/SzJ (NRG), tumor/muscle, iv, total radioactivity, 72 h pi, n = 5, read-out: Tumor/muscle uptake ratio", "value": "522 ± 189"}, {"measurement": "tissue to tissue ratio at 120 h", "setting": "[3]", "value": "744 ± 179"}, {"measurement": "tissue to tissue ratio at 1 h", "setting": "male, NOD.Cg-Rag1^tm1Mom Il2rg^tm1Wjl/SzJ (NRG), tumor/pancreas, iv, total radioactivity, blocked (100 µg GRPR antagonist co-injected), read-out: Tumor/pancreas uptake ratio", "value": "6.72 ± 2.24"}, {"measurement": "tissue to tissue ratio at 1 h", "setting": "[4]", "value": "3.57 ± 0.42"}, {"measurement": "tissue to tissue ratio at 4 h", "setting": "[4]", "value": "4.91 ± 0.14"}, {"measurement": "tissue to tissue ratio at 24 h", "setting": "[4]", "value": "5.7 ± 0.81"}, {"measurement": "tissue to tissue ratio at 72 h", "setting": "male, NOD.Cg-Rag1^tm1Mom Il2rg^tm1Wjl/SzJ (NRG), tumor/pancreas, iv, total radioactivity, 72 h pi, n = 5, read-out: Tumor/pancreas uptake ratio", "value": "8.37 ± 3.35"}, {"measurement": "tissue to tissue ratio at 120 h", "setting": "[4]", "value": "17.1 ± 2.1"}, {"measurement": "tissue uptake at 1 h", "setting": "PC-3 tumor, 100 ug, blocked (100 µg GRPR antagonist co-injected), read-out: PC-3 tumor uptake", "value": "3.25 ± 0.44", "unit": "%ID/g"}, {"measurement": "tissue uptake at 1 h", "setting": "[5]", "value": "9.59 ± 3.37", "unit": "%ID/g"}, {"measurement": "tissue uptake at 4 h", "setting": "[5]", "value": "8.38 ± 0.19", "unit": "%ID/g"}, {"measurement": "tissue uptake at 24 h", "setting": "[5]", "value": "5.78 ± 0.4", "unit": "%ID/g"}, {"measurement": "tissue uptake at 72 h", "setting": "PC-3 tumor, 72 h pi, n = 5, read-out: PC-3 tumor uptake", "value": "2.74 ± 0.85", "unit": "%ID/g"}, {"measurement": "tissue uptake at 120 h", "setting": "[5]", "value": "2.19 ± 0.59", "unit": "%ID/g"}, {"measurement": "tissue uptake at 72 h", "setting": "PC-3 tumor, after 72 h pi, read-out: tumor uptake", "value": "< 3", "unit": "%ID/g"}, {"measurement": "tissue uptake at 1 h", "setting": "adrenal glands, 100 ug, blocked (100 µg GRPR antagonist co-injected), read-out: Adrenal glands uptake", "value": "0.27 ± 0.06", "unit": "%ID/g"}, {"measurement": "tissue uptake at 1 h", "setting": "[6]", "value": "0.46 ± 0.15", "unit": "%ID/g"}, {"measurement": "tissue uptake at 4 h", "setting": "[6]", "value": "0.33 ± 0.15", "unit": "%ID/g"}, {"measurement": "tissue uptake at 24 h", "setting": "[6]", "value": "0.36 ± 0.3", "unit": "%ID/g"}, {"measurement": "tissue uptake at 72 h", "setting": "adrenal glands, 72 h pi, n = 5, read-out: Adrenal glands uptake", "value": "0.13 ± 0.07", "unit": "%ID/g"}, {"measurement": "tissue uptake at 120 h", "setting": "[6]", "value": "0.1 ± 0.02", "unit": "%ID/g"}, {"measurement": "tissue uptake at 1 h", "setting": "blood, 100 ug, blocked (100 µg GRPR antagonist co-injected), read-out: Blood uptake", "value": "0.43 ± 0.23", "unit": "%ID/g"}, {"measurement": "tissue uptake at 1 h", "setting": "[7]", "value": "0.59 ± 0.18", "unit": "%ID/g"}, {"measurement": "tissue uptake at 4 h", "setting": "[7]", "value": "0.06 ± 0.02", "unit": "%ID/g"}, {"measurement": "tissue uptake at 24 h", "setting": "[7]", "value": 0.01, "unit": "%ID/g"}, {"measurement": "tissue uptake at 1 h", "setting": "bone, 100 ug, blocked (100 µg GRPR antagonist co-injected), read-out: Bone uptake", "value": "0.12 ± 0.04", "unit": "%ID/g"}, {"measurement": "tissue uptake at 1 h", "setting": "[8]", "value": "0.23 ± 0.06", "unit": "%ID/g"}, {"measurement": "tissue uptake at 4 h", "setting": "[8]", "value": "0.1 ± 0.08", "unit": "%ID/g"}, {"measurement": "tissue uptake at 24 h", "setting": "[8]", "value": "0.02 ± 0.01", "unit": "%ID/g"}, {"measurement": "tissue uptake at 72 h", "setting": "bone, 72 h pi, n = 5, read-out: Bone uptake", "value": 0.02, "unit": "%ID/g"}, {"measurement": "tissue uptake at 120 h", "setting": "[8]", "value": 0.02, "unit": "%ID/g"}, {"measurement": "tissue uptake at 1 h", "setting": "brain, 100 ug, blocked (100 µg GRPR antagonist co-injected), read-out: Brain uptake", "value": "0.02 ± 0.01", "unit": "%ID/g"}, {"measurement": "tissue uptake at 1 h", "setting": "[9]", "value": "0.02 ± 0.01", "unit": "%ID/g"}, {"measurement": "tissue uptake at 4 h", "setting": "[9]", "value": 0.01, "unit": "%ID/g"}, {"measurement": "tissue uptake at 1 h", "setting": "fat, 100 ug, blocked (100 µg GRPR antagonist co-injected), read-out: Fat uptake", "value": "0.06 ± 0.03", "unit": "%ID/g"}, {"measurement": "tissue uptake at 1 h", "setting": "[10]", "value": "0.08 ± 0.02", "unit": "%ID/g"}, {"measurement": "tissue uptake at 4 h", "setting": "[10]", "value": "0.02 ± 0.01", "unit": "%ID/g"}, {"measurement": "tissue uptake at 24 h", "setting": "[10]", "value": 0.01, "unit": "%ID/g"}, {"measurement": "tissue uptake at 120 h", "setting": "[10]", "value": "0.01 ± 0.01", "unit": "%ID/g"}, {"measurement": "tissue uptake at 1 h", "setting": "heart, 100 ug, blocked (100 µg GRPR antagonist co-injected), read-out: Heart uptake", "value": "0.13 ± 0.05", "unit": "%ID/g"}, {"measurement": "tissue uptake at 1 h", "setting": "[11]", "value": "0.19 ± 0.05", "unit": "%ID/g"}, {"measurement": "tissue uptake at 4 h", "setting": "[11]", "value": "0.06 ± 0.02", "unit": "%ID/g"}, {"measurement": "tissue uptake at 24 h", "setting": "[11]", "value": 0.02, "unit": "%ID/g"}]}]}
